The values below come from patent US20190053489A1, “ANTIMICROBIAL COMPOSITION” (NATIONAL UNIVERSITY CORPORATION TOKYO MEDICAL AND DENTAL …, priority 2016, published 2019).

Series [1] concerns MRSA. As to conditions: reported by AOKI and KASHIWAGI; cited from earlier work.
Series [2] concerns MRSA IID 1677. Kind of series: Proliferation suppression against MRSA in a diluted medium (OD600). The format is cell-based, Methicillin-Resistant Staphylococcus Aureus (MRSA). As to conditions: diluted 1/2.5 LB medium, 37° C., OD 600 nm; complex 0.001%, lysozyme, chitosan and each of mixture 0.0005%; FIG. 1. How it is done: This test employed MRSA IID 1677, and this microbe strain was cultured in a normal broth medium at 37° C. for 20 hours. The cultured microbial solution was collected by centrifugation (3000 rpm, 10 minutes), suspended with sterilized water, and then diluted with sterilized water so that the optical density would satisfy OD600=1.0. The resultant was diluted 2000 times (corresponding to 10^6 CFU/ml) to prepare a reaction microbial solution.
Each of the LB test medium samples was added with 100 μl of reaction microbial solution and was shake cultured under the condition of 37° C. for 48 hours. Here, the LB test medium samples were prepared using 10 ml of 1/2.5 LB medium added with
(1) 10 ml of sterilized water, (2) 10 ml of the lysozyme-chitosan complex with a concentration of 0.002% (the concentration after addition was 0.001%), (3) 10 ml of lysozyme alone with a concentration of 0.001% (the concentration after addition was 0.0005%), (4) 10 ml of chitosan alone with a concentration of 0.001% (the concentration after addition was 0.0005%), and (5) 10 ml of the mixture of lysozyme and chitosan with a concentration of 0.001% (the concentration of each after addition was 0.0005%).
After that, 3 ml was extracted at time intervals (0, 1, and 2 days), and the optical density was measured at an absorption wavelength of 600 nm. […]

The subject of series [3] is Micrococcus luteus bacteria. The series can be described thus: Heat resistance evaluation by bacteriolytic test. In kind it is physicochemical. As to conditions: 80° C. for 2 hours; ΔOD at 10 minutes with vs without heating; complex 5%, lysozyme 2.5% aqueous solution; FIG. 6(D). How it is done: This test is a bacteriolytic test using Micrococcus luteus bacteria being lysozyme-sensitive bacteria. Note that the bacteriolytic activity is an activity specific to lysozyme. Lysozyme is a protein relatively stable against heat. However, it is known that this activity generally decreases considerably for lysozyme heated at 80° C. for 30 minutes.
This test employed an aqueous solution of the lysozyme-chitosan complex with a concentration of 5%, an aqueous solution of lysozyme with a concentration of 2.5%, and an aqueous solution of the mixture of lysozyme and chitosan with a concentration of […]. In addition, Micrococcus luteus bacteria manufactured by Wako Pure Chemical Industries, Ltd. were used as the use bacteria.
First, 1 g of Micrococcus luteus bacteria was weighed on the day before the test, added to 100 ml of physiological saline, and stirred overnight at 4° C. […]
In an optical density meter, 2800 μl of the test microbial solution was set to record OD (0-1) immediately before the addition of the sample. […] Since OD increased here, the highest value OD (0-2) was recorded.
Timer measurement was started after the addition of the sample to record OD at the time of 2, 4, 6, 8, and 10 minutes passed. Each test was carried out twice, and the average was calculated.
With OD for (0-2) being OD at the time of the start, Δoptical density (AOD) at each point was calculated. […]

Series [4] concerns MRSA IID 1677. Kind of series: Proliferation suppression against MRSA in a standard medium (colony count method). The format is cell-based, Methicillin-Resistant Staphylococcus Aureus (MRSA). As to conditions: standard TSB medium with phosphate buffer pH 7.0; complex 0.2%, lysozyme, chitosan, each of mixture 0.1%; FIG. 7. As to the method: This test employed MRSA IID 1677, and this microbe strain was inoculated in 20 ml of a normal broth medium (manufactured by Eiken Chemical Co., Ltd., ‘Eiken’) for overnight shake culture at 37° C. The cultured microbial solution was collected by centrifugation (3000 rpm, 10 minutes), suspended with sterilized water, and then diluted with sterilized water so that the optical density would satisfy OD600=1.0. The resultant was diluted 2000 times (corresponding to 10^6 CFU/ml) to prepare a reaction microbial solution.
Here, the TSB test medium samples were prepared using 10 ml of TSB medium (BD BBL™) added with 200 μl of 1 M phosphate buffer (pH 7.0), followed by further addition of
(1) 10 ml of sterilized water, ([…]), (3) 10 ml of lysozyme alone with a concentration of 0.2% (the concentration after addition was 0.1%), (4) 10 ml of chitosan alone with a concentration of 0.2% (the concentration after addition was 0.1%), and (5) 10 ml of the mixture of lysozyme and chitosan with a concentration of 0.2% (the concentration of each after addition was 0.1%).
After that, 100 μl was extracted and seeded on the MH agar medium, and the number of colonies produced was observed (colony count method). […] Note that the results of FIG. 7 are each the average value of the values obtained by carrying out the colony count method three times.
Note that the results of FIG. 8 are each the average value obtained with two replicate samples.

Series [5] has as its system MRSA. The series can be described thus: Observation of morphological change in MRSA by electron microscope. As to conditions: complex 0.1% by mass, lysozyme 0.05%, chitosan 0.05%, mixture each 0.05%; FIG. 16. In kind it is cell-based, Methicillin-Resistant Staphylococcus Aureus (MRSA). As to the method: First, the morphological change in MRSA was observed by using a scanning electron microscope. This observation with a scanning electron microscope was carried out as follows: osmium coating (4 nm) was performed as the conductive treatment, and a low-acceleration ultra-high resolution scanning electron microscope (SU 9000 manufactured by Hitachi High-Technologies Corporation (accelerating voltage: 1 kV)) was used. In addition, the samples were MRSA added with physiological saline and MRSA added with a lysozyme-chitosan complex with a concentration of 0.2% by mass.
(§1) Next, the morphological change in MRSA was observed by using a transmission electron microscope. This observation with a transmission electron microscope was carried out as follows: the sample was sliced in 50 nm with a diamond knife as the pretreatment and was stained with uranium acetate and lead citrate, and a transmission electron microscope (JEM-1400 manufactured by JEOL Ltd.) was used. In addition, the samples were MRSA added with physiological saline and MRSA added with a lysozyme-chitosan complex with a concentration of 0.2% by mass.
(§2) Observation was carried out with a scanning electron microscope for the morphological changes in MRSA and pseudomonas aeruginosa treated with the lysozyme-chitosan complex, lysozyme alone, chitosan alone, and the mixture of lysozyme and chitosan (treatment time: 2 hours). This observation with a scanning electron microscope was carried out in the same manner as Example 8 described above: osmium coating (4 nm) was performed as the conductive treatment, and a low-acceleration ultra-high resolution scanning electron microscope (SU 9000 manufactured by Hitachi High-Technologies Corporation (accelerating voltage: 1 kV)) was used. In addition, the samples were MRSA or pseudomonas aeruginosa added with physiological saline, a lysozyme-chitosan complex with a concentration of 0.1% by mass, lysozyme of 0.05% by mass, chitosan of 0.05% by mass, and a mixture of lysozyme and chitosan, each with 0.05% by mass.

The subject of a further series is pseudomonas aeruginosa. The series can be described thus: Observation of morphological change in pseudomonas aeruginosa by electron microscope. The format is cell-based. Conditions: complex 0.1% by mass, lysozyme 0.05%, chitosan 0.05%, mixture each 0.05%; FIG. 17. How it is done:
as §1
Note that the morphological change in the case of adding the lysozyme-chitosan complex to pseudomonas aeruginosa was also observed using a transmission electron microscope in the same manner as above. […] In other words, the lysozyme-chitosan complex also has a resistant microbe inactivation effect for pseudomonas aeruginosa.
as §2

For gentamicin, the “generation at which a resistant microbe is observed to produce” value with MRSA [1] is on record as “third generation”.

With “lysozyme [lysozyme alone, reference compound]”, the “proliferation suppression effect against MRSA for 48 hours” value in the series with MRSA IID 1677 [2] was “observed to some extent”. Also, the “residual activity (bacteriolytic) after heating treatment” value in series [3] was 73.3%. For the same molecule, in the series on MRSA IID 1677 [4], the “proliferation suppression effect against MRSA (ratio of colonies produced 6 hours later to control)” value is reported as “almost no proliferation suppression effect”. Further, the “morphological change in MRSA, scanning electron microscope, treatment time 2 hours” value in the series with MRSA [5] is listed as “no significant morphological change was observed”. The “morphological change in pseudomonas aeruginosa, scanning electron microscope, treatment time 2 hours” value in the series on pseudomonas aeruginosa is on record as “no significant morphological change was observed”.

`CN(C)c1ccc(O)c2c1C[C@H]1C[C@H]3[C@H](N(C)C)C(O)=C(C(N)=O)C(=O)[C@@]3(O)C(O)=C1C2=O` [minomycin]: the “generation at which a resistant microbe is observed to produce” value in the series on MRSA [1] is reported as “sixth generation”.
